Laboratory results as given in patent publication US20110197293A1, “SENSE AND ANTISENSE TRANSCRIPTS OF TRPM2 AND USES THEREOF” (GIOVANNI LAVORGNA, priority 2008, published 2011).

What was measured:
Format in all cases: cell-based, human
TRPM2-AS transcript = experiment: qPCR of TRPM2-AS transcript after siRNA transfection in Mel Im cells; settings: siRNA 10 nM, harvested at 24 hours, respect to mock-transfected cells
Text: (§1) Beta-actin (Exons 5-6) was amplified from cDNAs using the specific primers: LC+hBactin-U 5′-TCCTCCTGGAGAAGAGCTA-3′ (SEQ ID No. 6) and LC+hBactin-L 5′-GGATGCCACAGGACTCCAT-3′ (SEQ ID No. 7) coupled to human Universal Probe Library (UPL) probe number 11 (Roche) resulting in a 124 bp fragment. TRPM2-FL (Exons 20-21) was amplified by RT-PCR from cDNAs using the specific primers: RCH_LONG_TRPM2_U 5′-ACCTCCTCATCGCCATGTT-3′ (SEQ ID No. 8) and RCH_LONG_TRPM2_L 5′-[…]-3′ (SEQ ID No. 9) coupled to human UPL probe number 11, resulting in a 68 bp fragment. TRPM2-AS (Exons 1-2) was amplified by RT-PCR from cDNAs using the specific primers: RCH-asmel-1F 5′-[…]-3′ (SEQ ID No. 10) and RCH-asmel-1R 5′-[…]-3′ (SEQ ID No. 11) coupled to human UPL probe number 57, resulting in a 61 bp fragment. TRPM2-TE was amplified from cDNAs using the primers: UPL-TSS-U 5′-GATGTTTTGGCGGAAGGAC-3′ (SEQ ID No. 12) and UPL-TSS-Rev 5′-CAGGAAGACGTGACGCAAG-3′ (SEQ ID No. 13) coupled to human UPL probe number 6, resulting in a 88 bp intronless fragment. The contribution of genomic DNA contamination to the detected signal was subtracted by running a parallel real-time quantification from a RT-minus reaction, where the RT-enzyme was substituted with water. When RNA was not available to perform the RT-minus control, the contribution of DNA contamination to the detected signal was subtracted by performing a real-time quantification on the same samples, using a couple of primers specific for the Beta-actin promoter: LC-ProBACT-U1 5′-[…]-3′ (SEQ ID No. 14) and LC-ProBACT-L1 5′-[…]-3′ (SEQ ID No. 15) coupled to human UPL probe number 81 (Roche) resulting in a 85 bp fragment. Real time PCR reactions were performed on a LightCycler 480 instrument (Roche), on 96 multiwell plates (Roche) using LightCycler 480 ProbeMaster Mix (Roche) following the manufacturer instructions. Briefly, all reactions were performed in a final 30 μl volume containing 15 μl of 2× MasterMix, 0.6 μl of each primer (20 μmol/L), 0.3 μl of the corresponding UPL probe (10 μmol/L), and 10 μl of template cDNA. Only for TRPM2-AS the reaction was supplemented with 6 μl of 5× Solution-Q (Qiagen) and the cDNA template lowered to 7 μl. The resulting mix was pre-incubated for 10 minutes at 95° C., then amplification reactions were performed by 45 repetitive cycles of denaturing for 10 seconds at 95° C., annealing for 15 seconds at 58° C. and a final extension plus single acquisition step at 72° C. for 1 second. Levels of target gene transcripts were normalized to transcript levels of a reference gene (Beta-actin) and calculated using a relative quantification model with efficiency correction. Amplification efficiency of primer pairs was calculated from serial dilutions of a representative cDNA template over a concentration range of 3 log orders. […]

TRPM2-TE transcript = experiment: qPCR of TRPM2-TE transcript after siRNA transfection in Mel Im cells; settings: siRNA 10 nM, harvested at 24 hours, respect to mock-transfected cells
Text: as §1

Melanoma cells = experiment: Apoptosis detection by flow cytometry (Annexin V) after siRNA transfection; settings: 72 h after transfection
Protocol: Apoptosis was measured after a 72 h transfection with any of the following siRNA: TRPM2-AS—657, TRPM2-AS—734, TRPM2-TE—55 or the non-specific siRNA. Early and late apoptotic cells were assessed by flow cytometry using the Annexin V-Fitc Apoptosis Detection kit (Immunostep, Salamanca, Spain), following manufacturer's instructions. Data acquisition and analysis were done in a FACSort Cytometer (Becton Dickinson, Franklin Lakes, N.J.) using CellQuest and FCS Express software.

[1] = tested on: CpG island located between TRPM2-AS and TRPM2-TE transcripts; experiment: De-novo DNA methylation of the CpG island, bisulphite sequencing of clones; settings: Mel Im cells, liposome-encapsulated oligonucleotides 3 μM final, 24 hours
Protocol: Genomic DNA was isolated and purified with TRIzol reagent (Invitrogen) and quantified with a Nanodrop. Average 100 ng of each DNA sample were subjected to bisulphite modification with the MethylEasy Kit (Human Genetic Signatures) allowing the sulphonation reaction to proceed for no less than 8 hours at 55° C. Following conversion, 3 μl of the modified DNAs were PCR amplified with the primers CpG-8U 5′-[…]-3′ (SEQ ID No. 3) and CpG-8L 5′-[…]-3′ (SEQ ID No. 4) (1 ng/μl each) in the presence of buffer 10× (Qiagen), dNTPs (2 mmol/L), 5× Solution Q (Qiagen), Taq DNA Polymerase (3U), with the reaction conditions being: 1 minute of pre-incubation at 95° C., then amplification reactions were performed by 35 repetitive cycles of denaturing for 1 minute at 95° C., annealing for 2 minutes at 55° C. and extension for 2 minutes at 72° C. A semi-nested PCR reaction was performed in same conditions except for the forward primer changed to CpG-1U 5′-[…]-3′ (SEQ ID No. 5), using 4 μl of the previous 472 bp per product as template. The resulting 370 bp product was then gel-purified, cloned and sequenced using standard procedures.
Three phosphorothioate oligonucleotides were designed in which the cytosines in CpG dinucleotides were replaced by m^5 CpG. […]

Substance | knock-down of TRPM2-AS transcript expression (TRPM2-AS transcript) | knock-out of TRPM2-TE transcripts/molecules (TRPM2-TE transcript) | level of apoptosis vs. the control siRNA or the mock transfected cells (Melanoma cells) | methylation of CpG island clones (5 clones sequenced) [1]
5′-AGGUAGUGUAAUCGCCUUG(dTdT)-3′ [non-specific siRNA, reference compound] | No significant down-regulation | No significant down-regulation | – | –
5′-CCACUUACUCAUCCAAGAA(dTdT)-3′ [TRPM2-AS—734] | 75% | 70% | significant increase | –
5′-CCAGUAACUCCGCCCAAAU(dTdT)-3′ [TRPM2-AS—657] | 69% | 84% | significant increase | –
5′-GAAGGACCACAGAGGAAGU(dTdT)-3′ [TRPM2-TE—55] | 30% | 56% | significant increase | –
TCCT^mCGGGCTGCTGAGTTT^mCGC^mCGGCCC (DNA TCCTCGGGCTGCTGAGTTTCGCCGGCCC; 5-methylcytosine modifications, chemistry not fully specified) [MOS] | – | – | – | non-methylation
